From US10815241B2, “Optically active azabicyclo ring derivative” (priority 2018, dated 2020) come the findings set out here.

Data set [1] concerns MEIS1. The data set can be described thus: Test 3: inhibition of mRNA transcription, MEIS1 in MV4;11 cells. It is filed as cell-based. The settings on record: for mRNA at 1 μM (% control) MEIS1: MV4;11 cells, 20 to 24 hours, relative to GAPDH; for mRNA transcription inhibition activity: statement in words, MEIS1 and HOXA9, MV4;11 cells. The source says:
(§1) MV4; 11 cells were obtained from American Type Culture Collection (ATCC). […] The expression level of each obtained gene (MEIS1 and HOXA9) was fitted with the expression level of mRNA of GAPDH.

For data set [2], the system named is RS4; 11 cells. The data set can be described thus: Test 2: inhibition of cell proliferation, RS4;11. It is filed as cell-based. The settings on record: for IC50: Homo sapiens, RS4;11 cells, 7 days, PrestoBlue cell viability; for cell proliferation inhibition activity: statement in words, RS4;11 and MOLM-13 cells. How it is done: (§2) RS4; 11 cells were obtained from American Type Culture Collection (ATCC). […] MOLM-13 cells were separately obtained from DSMZ (Deutsche Sammlung von Mikroorganismen und Zellkulturen GmbH).
(§3) The cells were plated to a 96-well plate in 2000 cells/well, each test compound was added thereto to adjust the final concentration of DMSO to 0.1% of DMSO, and the cells were cultured for 7 days. After the cultivation, the cell viability was calculated with PrestoBlue™ Cell Viability Reagent (Invitrogen, A13261).

Data set [3] concerns the target Menin-MLL binding (His-Menin1-615 / MLL1-172-FLAG) (Homo sapiens (Human), UniProt O00255). The data set can be described thus: Test 1: inhibition of the Menin-MLL binding (HTRF). The note with it: for IC50: Menin-MLL binding inhibition; for Menin-MLL binding inhibition activity: statement in words on the table of Test 1. The protocol:
After the incubation, the signal was detected with RUBYstar (BMG LABTECH).

For data set [4], the target named is hERG (human Ether-a-go-go Related Gene) (Homo sapiens (Human), UniProt Q12809). The experiment in a line: Test 4: hERG inhibition (QPatch HT, CHO cells stably expressing hERG). The settings on record: for hERG/RS4; 11: hERG IC50 divided by RS4;11 proliferation IC50. (The hERG channel carries a current that helps repolarise heart muscle cells.)
hERG (human Ether-a-go-go Related Gene), sequence (Q12809 whole entry): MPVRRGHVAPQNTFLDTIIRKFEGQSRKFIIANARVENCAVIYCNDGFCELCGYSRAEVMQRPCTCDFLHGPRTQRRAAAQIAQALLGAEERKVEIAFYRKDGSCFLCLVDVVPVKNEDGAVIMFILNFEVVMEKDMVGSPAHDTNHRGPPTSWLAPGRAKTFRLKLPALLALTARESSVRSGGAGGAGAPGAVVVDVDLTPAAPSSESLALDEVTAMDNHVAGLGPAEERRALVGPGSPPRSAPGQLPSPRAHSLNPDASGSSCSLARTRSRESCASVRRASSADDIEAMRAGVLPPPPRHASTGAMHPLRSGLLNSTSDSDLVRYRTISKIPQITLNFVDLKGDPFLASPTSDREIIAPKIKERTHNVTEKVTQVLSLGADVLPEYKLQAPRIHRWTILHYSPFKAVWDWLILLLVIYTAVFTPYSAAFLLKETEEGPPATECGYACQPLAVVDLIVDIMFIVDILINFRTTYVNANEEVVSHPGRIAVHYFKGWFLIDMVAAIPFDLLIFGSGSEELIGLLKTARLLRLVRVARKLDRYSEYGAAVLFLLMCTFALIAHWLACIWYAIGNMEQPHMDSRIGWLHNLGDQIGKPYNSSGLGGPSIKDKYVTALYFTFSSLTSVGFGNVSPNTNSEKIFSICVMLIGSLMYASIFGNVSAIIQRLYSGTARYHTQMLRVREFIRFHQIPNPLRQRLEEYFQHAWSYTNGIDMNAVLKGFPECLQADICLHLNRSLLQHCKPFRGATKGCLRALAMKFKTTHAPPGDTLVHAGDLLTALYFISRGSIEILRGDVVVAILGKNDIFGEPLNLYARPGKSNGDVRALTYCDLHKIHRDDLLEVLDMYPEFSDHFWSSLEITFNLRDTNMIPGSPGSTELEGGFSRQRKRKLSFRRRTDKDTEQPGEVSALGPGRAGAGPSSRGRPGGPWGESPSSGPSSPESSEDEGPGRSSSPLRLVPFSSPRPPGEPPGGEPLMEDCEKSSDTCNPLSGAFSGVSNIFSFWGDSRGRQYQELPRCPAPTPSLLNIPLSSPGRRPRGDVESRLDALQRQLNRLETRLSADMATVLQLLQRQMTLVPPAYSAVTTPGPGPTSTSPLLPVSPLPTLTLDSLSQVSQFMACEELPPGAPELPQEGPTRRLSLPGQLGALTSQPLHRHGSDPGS
Data set [5] deals with MOLM-13 cells. The experiment in a line: Test 2: inhibition of cell proliferation, MOLM-13. It is filed as cell-based. The note with it: Homo sapiens, 7 days, PrestoBlue cell viability. The protocol:
as §2, §3

The test system of data set [6] is HOXA9. The experiment in a line: Test 3: inhibition of mRNA transcription, HOXA9 in MV4;11 cells. It is filed as cell-based. The settings on record: 20 to 24 hours, relative to GAPDH.
Text: as §1

Entries after “also recorded” stand apart in the source; their conditions may differ.

Menin-MLL binding (His-Menin1-615 / MLL1-172-FLAG), sequence (O00255 other isoform, or with tags, fused parts or gaps): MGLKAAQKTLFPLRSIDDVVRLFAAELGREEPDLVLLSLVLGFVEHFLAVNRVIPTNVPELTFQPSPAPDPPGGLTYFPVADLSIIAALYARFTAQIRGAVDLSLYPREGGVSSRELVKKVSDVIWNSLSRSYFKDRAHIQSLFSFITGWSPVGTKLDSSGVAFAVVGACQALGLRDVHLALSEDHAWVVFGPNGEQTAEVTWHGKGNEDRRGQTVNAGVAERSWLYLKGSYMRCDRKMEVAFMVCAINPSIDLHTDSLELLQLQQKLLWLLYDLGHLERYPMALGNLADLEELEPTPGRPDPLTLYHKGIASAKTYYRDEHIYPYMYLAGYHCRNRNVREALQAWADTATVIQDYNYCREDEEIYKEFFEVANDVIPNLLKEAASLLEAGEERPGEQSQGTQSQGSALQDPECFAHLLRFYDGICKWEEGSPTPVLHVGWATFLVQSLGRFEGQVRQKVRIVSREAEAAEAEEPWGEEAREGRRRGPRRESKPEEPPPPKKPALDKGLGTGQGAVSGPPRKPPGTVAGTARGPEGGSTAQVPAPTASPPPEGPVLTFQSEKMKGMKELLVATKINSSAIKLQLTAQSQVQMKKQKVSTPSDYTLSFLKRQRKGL

The term IC50 denotes the concentration that gives 50% inhibition. A high value points to weaker potency. As for `CC(C)N(C(=O)c1cc(F)ccc1Oc1cncnc1N1CC2(CN(C(=O)[C@H]3N[C@H]4CC[C@@H]3C[C@H]4CC3CC3)C2)C1)C(C)C` [Example 5, 2-[(4-{6-[(1S,3S,4R,6R)-6-(cyclopropylmethyl)-2-azabicyclo[2.2.2]octane-3-carbonyl]-2,6-diazaspiro[3.3]heptan-2-yl}pyrimidin-5-yl)oxy]-5-fluoro-N,N-di(propan-2-yl)benzamide], in data set [1], the “mRNA at 1 μM (% control) MEIS1” value stood at 15.5 % control and the “mRNA transcription inhibition activity” value is “showed the mRNA transcription inhibition activity”. Also, in data set [2], the IC50 was determined as 20 nM and the “cell proliferation inhibition activity” value is on record as “potent; also recorded: excellent”. For the same compound, in data set [3], the half-inhibitory concentration (IC50) was determined as 4.1 nM and the “Menin-MLL binding inhibition activity” value was “potent”. Besides, in data set [4], the IC50 came to 7.9 µM; the “gap between RS4; 11 proliferation IC50 and hERG current IC50” value (“gap between RS4” below) was “more than 100 fold”; the “hERG/RS4; 11” value was 395. Also, in data set [5], inhibition was half-maximal at 30 nM (IC50). Besides, in data set [6], the “mRNA at 1 μM (% control) HOXA9” value came to 42.6 % control.
For the compound `CC(C)N(C(=O)c1cc(F)ccc1Oc1cncnc1N1CC2(CCN(C(=O)[C@H]3N[C@H]4CC[C@@H]3C[C@H]4CC3CC3)CC2)C1)C(C)C` [Example 4, 2-[(4-{7-[(1S,3S,4R,6R)-6-(cyclopropylmethyl)-2-azabicyclo[2.2.2]octane-3-carbonyl]-2,7-diazaspiro[3.5]nonan-2-yl}pyrimidin-5-yl)oxy]-5-fluoro-N,N-di(propan-2-yl)benzamide], in data set [1], the “mRNA at 1 μM (% control) MEIS1” value is 18.0 % control and the “mRNA transcription inhibition activity” value is reported as “showed the mRNA transcription inhibition activity”. In data set [2], inhibition was half-maximal at 40 nM (IC50) and the “cell proliferation inhibition activity” value is “potent”. Also, in data set [3], the IC50 was found to be 7.1 nM and the “Menin-MLL binding inhibition activity” value was “potent”. In data set [4], the IC50 is 5.8 µM; the “gap between RS4” value is listed as “more than 100 fold”; the “hERG/RS4; 11” value is recorded as 145. Besides, 70 nM corresponded to half-maximal inhibition in data set [5] (IC50). For the same compound, the “mRNA at 1 μM (% control) HOXA9” value in data set [6] came out at 43.7 % control.
Consider `CC(C)N(C(=O)c1cc(F)ccc1Oc1cncnc1N1CC2(CN(C(=O)[C@H]3N[C@H]4CC[C@@H]3[C@@H](F)C4)C2)C1)C(C)C` [Example 10, 5-fluoro-2-[(4-{6-[(1S,3S,4S,5S)-5-fluoro-2-azabicyclo[2.2.2]octane-3-carbonyl]-2,6-diazaspiro[3.3]heptan-2-yl}pyrimidin-5-yl)oxy]-N,N-di(propan-2-yl)benzamide], for which, in data set [1], the “mRNA at 1 μM (% control) MEIS1” value is reported as 13.3 % control and the “mRNA transcription inhibition activity” value is “showed the mRNA transcription inhibition activity”. Further, in data set [2], the IC50 came out at 20 nM and the “cell proliferation inhibition activity” value was “potent”. Moreover, in data set [3], the IC50 was less than 3 nM and the “Menin-MLL binding inhibition activity” value is reported as “particularly potent”. Besides, in data set [4], the IC50 is more than 10 µM; the “gap between RS4” value is on record as “more than 100 fold”; the “hERG/RS4; 11” value is more than 500. Also, the half-maximal inhibitory concentration (IC50) in data set [5] was found to be 30 nM. Also, in data set [6], the “mRNA at 1 μM (% control) HOXA9” value is 37.4 % control.
Regarding `CC(C)N(C(=O)c1cc(F)ccc1Oc1cncnc1N1CC2(CN(C(=O)[C@H]3N[C@H]4CC[C@@H]3C[C@@H]4CC3CC3)C2)C1)C(C)C` [Example 3, 2-[(4-{6-[(1S,3S,4R,6S)-6-(cyclopropylmethyl)-2-azabicyclo[2.2.2]octane-3-carbonyl]-2,6-diazaspiro[3.3]heptan-2-yl}pyrimidin-5-yl)oxy]-5-fluoro-N,N-di(propan-2-yl)benzamide], in data set [1], the “mRNA at 1 μM (% control) MEIS1” value stood at 11.9 % control and the “mRNA transcription inhibition activity” value is “showed the mRNA transcription inhibition activity”. Besides, in data set [2], the 50% inhibitory concentration (IC50) stood at 30 nM and the “cell proliferation inhibition activity” value is given as “potent”. Besides, in data set [3], the IC50 was less than 3 nM and the “Menin-MLL binding inhibition activity” value was “particularly potent”. Moreover, in data set [4], the IC50 amounted to 6.2 µM; the “gap between RS4” value is reported as “more than 100 fold”; the “hERG/RS4; 11” value was 620. The compound also had a 50% inhibitory concentration (IC50) in data set [5] of 10 nM. Moreover, the “mRNA at 1 μM (% control) HOXA9” value in data set [6] is on record as 39.6 % control.
